Some test systems named below: TK-10 renal; OVCAR-8 ovarian; HS 578T breast; MOLT-4 leukemia; OVCAR-5 ovarian; MDA-MB-435; RPMI-8226 leukemia; OVCAR-4 ovarian; SF-539 CNS; MALME-3M melanoma.
What all share (experiment): DTP human tumour cell line panel, 48 h

Values joined by “and” are separate entries in the source; they are usually repeats but may differ in a detail not shown here. Equal entries are not always repeated.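 Compound exposure: 48 hours, 5 concentrations, 96-well plates. Abbreviation: GI50, concentration required for 50% inhibition of growth. Definition used: TGI = concentration required for complete inhibition of growth.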 Some results are limits rather than exact numbers.

Usually TGI stands for the concentration giving total growth inhibition. Higher therefore signals lower sensitivity of the cells. As to `Cc1cn(S(=O)(=O)c2ccccc2)c2c(OCc3ccccc3)cc([N+](=O)[O-])cc12`, the concentration for total growth inhibition (TGI) with TK-10 renal, in the assay with OVCAR-8 ovarian, in the assay on HS 578T breast, with MOLT-4 leukemia, in the assay with OVCAR-5 ovarian and in the assay on MDA-MB-435 was greater than 100 µM throughout. Besides, the concentration for total growth inhibition (TGI) in the assay on RPMI-8226 leukemia, with OVCAR-4 ovarian, in the assay with SF-539 CNS and in the assay on MALME-3M melanoma was greater than 100 µM in each case.

For the compound `CC(C#N)(NO)C(C)(C#N)NO` (stereo not drawn), the concentration for total growth inhibition (TGI) in the assay on TK-10 renal, with OVCAR-8 ovarian, with HS 578T breast, in the assay with MOLT-4 leukemia, with OVCAR-5 ovarian and in the assay with MDA-MB-435 was greater than 100 µM in each case. For the same compound, the TGI in the assay with RPMI-8226 leukemia, in the assay with OVCAR-4 ovarian, with SF-539 CNS and in the assay with MALME-3M melanoma was greater than 100 µM throughout.

For the compound `CC(=O)C1=C(C)N(c2ccccc2)C2(O)C3=C(C(=O)c4ccccc4C3=O)C(O)=CC12Cl` (stereo not drawn), the TGI was 33.1 µM in the assay with TK-10 renal; greater than 100 µM in the assay with OVCAR-8 ovarian; 15.2 µM in the assay on HS 578T breast; greater than 100 µM in the assay with MOLT-4 leukemia; greater than 100 µM in the assay with OVCAR-5 ovarian; 6.28 µM in the assay with MDA-MB-435. The TGI in the assay with RPMI-8226 leukemia stood at 4.39 µM; in the assay with OVCAR-4 ovarian, 14.5 µM; in the assay on SF-539 CNS it was 15.6 µM; with MALME-3M melanoma, 4.91 µM.

On to `COc1cc2c(cc1OC)C(CCN)=NCC2`, for which the TGI in the assay on TK-10 renal is 22.8 µM; with OVCAR-8 ovarian, 33.1 µM; in the assay with HS 578T breast it was 59.9 µM; in the assay with MOLT-4 leukemia, 43 µM; in the assay on OVCAR-5 ovarian, greater than 57.8 µM; in the assay with MDA-MB-435, 31.4 µM. Further, the TGI in the assay on RPMI-8226 leukemia was determined as 29.9 µM; in the assay with OVCAR-4 ovarian, 47.4 µM; in the assay on SF-539 CNS it was 16.6 µM; with MALME-3M melanoma, 33.1 µM.

With `CCN(CC)Cc1cc(N=Nc2c(O)ccc3c(N=Nc4ccc(O)c(CN(CC)CC)c4)c(O)ccc23)ccc1O`, the total growth inhibition concentration (TGI) is 18.8 µM in the assay with TK-10 renal; 5.27 µM in the assay with OVCAR-8 ovarian; greater than 38.7 µM with HS 578T breast; 12.1 µM in the assay on MOLT-4 leukemia; greater than 44.9 µM with OVCAR-5 ovarian; 20.8 µM in the assay on MDA-MB-435. The TGI in the assay on RPMI-8226 leukemia is 19 µM; in the assay on OVCAR-4 ovarian, 7.21 µM; in the assay with SF-539 CNS, 9.2 µM; in the assay with MALME-3M melanoma it was 21.5 µM.

On to `COc1ccc(-c2cc(-c3ccc(C)cc3)n(C3OC(COC(C)=O)C(OC(C)=O)C(OC(C)=O)C3OC(C)=O)c(=S)c2C#N)cc1` (stereo not drawn), for which the TGI in the assay with TK-10 renal, with OVCAR-8 ovarian, with HS 578T breast, with MOLT-4 leukemia, in the assay with OVCAR-5 ovarian and in the assay with MDA-MB-435 was greater than 100 µM in each case. The total growth inhibition concentration (TGI) in the assay with RPMI-8226 leukemia, with OVCAR-4 ovarian, with SF-539 CNS and with MALME-3M melanoma was greater than 100 µM each time.

`Cc1cccc2c(=O)c3cccc([C@H](C)C(=O)O)c3oc12`: the TGI in the assay with TK-10 renal, with OVCAR-8 ovarian, with HS 578T breast, in the assay on MOLT-4 leukemia, in the assay with MDA-MB-435 and with RPMI-8226 leukemia was greater than 100 µM throughout. Also, the TGI in the assay with OVCAR-4 ovarian, in the assay with SF-539 CNS and in the assay on MALME-3M melanoma was greater than 100 µM throughout.

For the compound `COC(=O)[C@@]12CSC[C@]1(C(=O)OC)N[C@@H](c1ccccc1O)C2`, the TGI in the assay on TK-10 renal, in the assay on OVCAR-8 ovarian, in the assay on HS 578T breast, in the assay with MOLT-4 leukemia, with OVCAR-5 ovarian and in the assay with MDA-MB-435 was greater than 100 µM throughout. Besides, the TGI with RPMI-8226 leukemia, with OVCAR-4 ovarian, in the assay with SF-539 CNS and in the assay with MALME-3M melanoma was greater than 100 µM throughout.

The GI50 is the concentration at which growth is held to half of that of the control. With `COc1ccc2[nH]c3ccc4cc[n+](CCN5CCC(C6CCN(CC[n+]7ccc8ccc9[nH]c%10ccc(OC)cc%10c9c8c7)CC6)CC5)cc4c3c2c1`, the TGI in the assay on TK-10 renal is 27.2 µM; in the assay with OVCAR-8 ovarian, 50 µM and > 100 µM; in the assay on HS 578T breast it was 50 µM; in the assay on MOLT-4 leukemia it was 50 µM and > 100 µM; in the assay on OVCAR-5 ovarian, 50 µM and > 91.1 µM; in the assay with MDA-MB-435, greater than 50 µM. Besides, the TGI in the assay on OVCAR-4 ovarian was 17.7 µM and > 100 µM; in the assay with SF-539 CNS, 50 µM and > 100 µM; in the assay on MALME-3M melanoma, 50 µM. Further, the GI50 in the assay on OVCAR-8 ovarian was 8.28 µM; in the assay with MOLT-4 leukemia, 0.209 µM; in the assay on OVCAR-5 ovarian, 39.2 µM; in the assay with RPMI-8226 leukemia, 0.367 µM and 0.443 µM; with SF-539 CNS, 1.26 µM.

For the compound `O=c1cc(NNc2ccccc2)[nH]c(=O)[nH]1`, the TGI with TK-10 renal was greater than 100 µM; in the assay with OVCAR-8 ovarian, 46.1 µM; in the assay on HS 578T breast it was greater than 100 µM; in the assay with MOLT-4 leukemia, 66.1 µM; in the assay on OVCAR-5 ovarian it was greater than 100 µM; in the assay with MDA-MB-435, 33.7 µM. Also, the TGI is 59.9 µM in the assay with RPMI-8226 leukemia, 29.5 µM with OVCAR-4 ovarian, greater than 100 µM with SF-539 CNS and 34.4 µM with MALME-3M melanoma.

Turning to `CN(C)N1C(=O)C(=O)N(c2cccc3ccccc23)C1=O`, the TGI in the assay with TK-10 renal, in the assay on OVCAR-8 ovarian, in the assay with HS 578T breast, with MOLT-4 leukemia, in the assay on OVCAR-5 ovarian and in the assay with MDA-MB-435 was greater than 10 µM throughout. The TGI in the assay on RPMI-8226 leukemia, with OVCAR-4 ovarian, in the assay on SF-539 CNS and in the assay with MALME-3M melanoma was greater than 10 µM in each case.

On to `CC1=C(C)C(=O)OC(C(C)(O)C2(O)CC3OC34C3CC(O)C56OC5C=CC(=O)C6(C)C3CCC42C)C1` (stereo not drawn), for which the TGI in the assay on TK-10 renal was 7.43 µM; with OVCAR-8 ovarian it was 6.67 µM; in the assay with HS 578T breast, 16.3 µM; in the assay on MOLT-4 leukemia it was 4.49 µM; in the assay on OVCAR-5 ovarian, 10.4 µM; with MDA-MB-435 it was 4.62 µM. The TGI is 5.34 µM in the assay on RPMI-8226 leukemia, 20.3 µM in the assay on OVCAR-4 ovarian, 6.39 µM with SF-539 CNS and 3.53 µM in the assay with MALME-3M melanoma.

As to `COC(=O)C1(Cc2ccc3c(c2)CCC3)Cc2ccc3c(c2C1=O)CCC3` (stereo not drawn), the TGI with TK-10 renal was greater than 90.1 µM; in the assay on OVCAR-8 ovarian it was greater than 100 µM; with HS 578T breast it was 16.4 µM; in the assay on MOLT-4 leukemia, 36.5 µM; in the assay with OVCAR-5 ovarian it was greater than 100 µM; in the assay on MDA-MB-435, 6.13 µM. The TGI is 52.7 µM with RPMI-8226 leukemia, greater than 66.7 µM in the assay on OVCAR-4 ovarian, 34.8 µM in the assay with SF-539 CNS and greater than 63.8 µM with MALME-3M melanoma.
